{"source": "patent US20210388213A1", "about": "“PROCESS FOR PRODUCING AQUEOUS COATING COMPOSITIONS” (CELANESE INTERNATIONAL CORPORATION, priority 2018, published 2021)", "tested_on": "mixture of bacteria, yeasts and fungi/moulds (inoculum)", "experiment": "Challenge test of preserved polymer dispersions with mixed inoculum (repeated up to six cycles)", "assay_type": "cell-based", "conditions": "at concentrations of <15 ppm in products such as aqueous coating compositions", "experimental": "100 g of the dispersions listed above are weighed into sterile sample bottles. To each sample 1% by weight of an inoculum is added and incubated at 30° C. for 7 days. As inoculum, a suspension in water which contains the following concentrations is used: Bacteria: 8.0×10^8−2.0×10^9 cfu/cm^3 Yeasts/moulds: 8.0×10^6−2.0×10^7 cfu/cm^3 A mixture of the following bacteria, yeasts and fungi/moulds are used for the preparation of the inoculum: Bacteria mixture of: Aeromonas hydrophila (sorbia, BAM 485) Alcaligenes faecalis (BAM 486) Providencia rettgeri (BAM 488) Pseudomonas aeruginosa (BAM 489) Pseudomonas sp (BAM 490) Escherichia coli (DSM 13631) Staphylococcus aureus (DSM 346) Micrococcus Luteus (DSM 20030) Yeast mixture of: Rhodotorula rubra (DSM 13621) Saccharomyces cerevisiae (DSM 13622) Issatchenkia orientalis (DSM 6128) Filamentous Fungy mixture of: Aspergillus terréus (DSM 13630) Geotrichum candidum (DSM 13629) Fusarium Solani (DSM 13635) After 7 days the microbial contamination remaining in the samples is determined by streaking the samples out onto Trypticase Sel Agar (TSA) and on Malt Extra Agar (MEA) as nutrient media and incubated at 30° C. for 7 days. The level of growing is measured by using a rating of 0 for no growth up to a rating of 3 for full growth. The test is passed in case no growth is observed which means a rating of 0 on TSA and MEA nutrient media. […]"}
{"smiles": "Cn1sc(Cl)cc1=O", "note": "[CIT, 5-chloro-2-methyl-4-isothiazolin-3-one]", "values": [{"measurement": "protection against microbial attack", "value": "not sufficient"}]}
